Data taken from patent publication US11576894B2, “Combination therapy for the treatment of diabetes” (Janssen Pharmaceutica N.V., priority 2009, dated 2023).
Structures can show the parent of a compound that is named as a salt.

Experiments:
[1] = system: Male ob/ob mice; assay: In vivo ob/ob mouse study: 22 days oral q.d., glucose, OGTT, plasma insulin, body weight; conditions: for Body Weight / Fed Glucose / Plasma Insulin: 22 days; for Blood Glucose AUC during OGTT: OGTT day 18, glucose 0.5 g/kg
Procedure: The mice were allowed ad libitum access to water and chow (commercially supplied diet). […] On the first morning, the mice were grouped as noted above and fed glucose. […] Body weight, food intake and fed blood glucose levels were measured weekly. An oral glucose tolerance test (OGTT) was conducted on the mice on day 18, after overnight fasting. […] Following completion of the study, final body weight and blood glucose level of were collected and the mice in each group was sacrificed to collect blood for biochemistry analysis, including fed blood glucose levels, fasted blood glucose levels, blood glucose levels during OGTT, plasma insulin and body weight change.

[2] = system: Male C57BL/6 mice (high fat diet, Steptozotocin); assay: In vivo mouse study: high fat diet / STZ C57BL/6 mice, 3 weeks oral treatment, fed and fasted glucose, OGTT; conditions: for Fed Glucose / Fed Glucose (% relative to the Vehicle): 3 weeks; for Blood Glucose AUC during OGTT / Blood Glucose AUC during OGTT (% relative to the Vehicle): glucose 2 g/kg; for Fasted Glucose / Fasted Glucose (% relative to the Vehicle): overnight fast from day 18
Source text: All the mice were then kept on a high fat diet for another 3 weeks. […] At the start of the pre-dose period, each mouse was assigned a predose number, which was indicated on its cage card. After assignment to dosage groups, each mouse was assigned a unique study identification number (which will be indicated on its cage card) and identified by permanent marker on its tail. Mice were housed 5 mice per cage in stainless steel cages. […] The temperature and humidity ranges will be monitored by a hygrothermograph. Mice were fed ad libitum (except where noted) with high-fat diet prepared in Southern University. Water was provided ad libitum by water bottles. The quarantine period was 5 days. The test compound or vehicle was administered orally by gavage. The dosage levels were chosen to represent a range of exposures with pharmacology effects. […] The mice were randomly divided into six testing group of 10 mice per group. Each group was treated for 3 weeks, via oral administration, with one of the following regimens: (a) vehicle; […] On Day 1 (the first day of dosing), dosing at all dose levels was initiated. All groups were then dosed for 20 additional days. The following pharmacological parameters were measured during and at the end of this study: […] The following morning, a basal fasted blood glucose level was determined. […] Food was replaced after the last time point of blood glucose measurement. The pharmacological significance of any findings was determined based on statistical analysis and historical control data. Statistical analyses were performed utilizing GraphPadPRISM.

[3] = Metformin HCl 250 mg/kg P.O. q.d.

Cc1ccc([C@@H]2O[C@H](CO)[C@@H](O)[C@H](O)[C@H]2O)cc1Cc1ccc(-c2ccc(F)cc2)s1 [Cmpd (I-X)]
blood glucose levels (result in words) ([1]; 10 mg/kg): significantly reduced | glucose excursion during OGTT (result in words) ([1]; 10 mg/kg): improved | Fasted Glucose ([1]; Cmpd (I-X) 1 mg/kg P.O. q.d.): 159 ± 12 mg/dL | Body Weight ([1]; Cmpd (I-X) 1 mg/kg P.O. q.d.): 53 ± 0.8 g | Fed Glucose ([1]; Cmpd (I-X) 1 mg/kg P.O. q.d.): 312 ± 34 mg/dL | Plasma Insulin ([1]; Cmpd (I-X) 1 mg/kg P.O. q.d.): 46.3 ± 3.5 ng/dL | Blood Glucose AUC during OGTT ([1]; Cmpd (I-X) 1 mg/kg P.O. q.d.): 80 ± 4 mg/dL * 2 h | Fasted Glucose ([1]; Cmpd (I-X) 10 mg/kg P.O. q.d.): 86 ± 4 mg/dL | Body Weight ([1]; Cmpd (I-X) 10 mg/kg P.O. q.d.): 54 ± 0.8 g | Fed Glucose ([1]; Cmpd (I-X) 10 mg/kg P.O. q.d.): 254 ± 22 mg/dL | Plasma Insulin ([1]; Cmpd (I-X) 10 mg/kg P.O. q.d.): 44.0 ± 3.6 ng/dL | Blood Glucose AUC during OGTT ([1]; Cmpd (I-X) 10 mg/kg P.O. q.d.): 48 ± 3 mg/dL * 2 h

CN(C)C(=N)N=C(N)N [Metformin, reference compound]
effect on blood glucose control (result in words) ([1]; 250 mg/kg): did not have an effect | Fed Glucose ([2]; Metformin 500 mg/kg oral): 345.4 ± 28.4 mg/dL | Fed Glucose (% relative to the Vehicle) ([2]; Metformin 500 mg/kg oral): 82% ± 7% | Blood Glucose AUC during OGTT ([2]; Metformin 500 mg/kg oral): 34023 ± 1618 mg/dL * 2 h | Blood Glucose AUC during OGTT (% relative to the Vehicle) ([2]; Metformin 500 mg/kg oral): 92% ± 4% | Fasted Glucose ([2]; Metformin 500 mg/kg oral): 74.7 ± 3.8 mg/dL | Fasted Glucose (% relative to the Vehicle) ([2]; Metformin 500 mg/kg oral): 85.9% ± 4.4%

CN(C)C(=N)N=C(N)N [Metformin HCl, metformin hydrochloride, reference compound]
Fasted Glucose [1, 3]: 166 ± 16 mg/dL | Body Weight [1, 3]: 52 ± 0.9 g | Fed Glucose [1, 3]: 371 ± 35 mg/dL | Plasma Insulin [1, 3]: 48.4 ± 2.0 ng/dL | Blood Glucose AUC during OGTT [1, 3]: 91 ± 9 mg/dL * 2 h

OC[C@H]1O[C@@H](c2ccc(Cl)c(Cc3ccc(-c4ccc(F)nc4)s3)c2)[C@H](O)[C@@H](O)[C@@H]1O [Cmpd (I-Y)]
Fed Glucose ([2]; Cmpd (I-Y) 1 mg/kg oral): 360.7 ± 15.7 mg/dL | Fed Glucose (% relative to the Vehicle) ([2]; Cmpd (I-Y) 1 mg/kg oral): 86% ± 4% | Blood Glucose AUC during OGTT ([2]; Cmpd (I-Y) 1 mg/kg oral): 31562 ± 1447 mg/dL * 2 h | Blood Glucose AUC during OGTT (% relative to the Vehicle) ([2]; Cmpd (I-Y) 1 mg/kg oral): 85% ± 4% | Fasted Glucose ([2]; Cmpd (I-Y) 1 mg/kg oral): 77.8 ± 4.9 mg/dL | Fasted Glucose (% relative to the Vehicle) ([2]; Cmpd (I-Y) 1 mg/kg oral): 89.4% ± 5.7% | Fed Glucose ([2]; Cmpd (I-Y) 10 mg/kg oral): 290.5 ± 24.8 mg/dL | Fed Glucose (% relative to the Vehicle) ([2]; Cmpd (I-Y) 10 mg/kg oral): 69% ± 6% | Blood Glucose AUC during OGTT ([2]; Cmpd (I-Y) 10 mg/kg oral): 25209 ± 894 mg/dL * 2 h | Blood Glucose AUC during OGTT (% relative to the Vehicle) ([2]; Cmpd (I-Y) 10 mg/kg oral): 68% ± 2% | Fasted Glucose ([2]; Cmpd (I-Y) 10 mg/kg oral): 66.9 ± 3.1 mg/dL | Fasted Glucose (% relative to the Vehicle) ([2]; Cmpd (I-Y) 10 mg/kg oral): 76.9% ± 3.6%
